This note sets out measurements from US12435037B2, “Acetylsalicylic acid derivative and application thereof” (Zhejiang Hanmai Pharmaceutical Technology Co., Ltd., priority 2018, dated 2025).

Data set [1] is described as follows: Metabolism in 10% diluted plasma, rat. Conditions: 10% diluted rat plasma.
The nature of data set [2]: in vitro. Conditions: monkey, 10% monkey plasma diluent.
Data set [3] can be described thus: Metabolism in 10% diluted plasma, mouse. The following applies: 10% diluted mouse plasma.
The nature of data set [4]: Plasma metabolic stability test in 10% monkey plasma diluent. The following applies: 37° C.
Data set [5] deals with monkey platelet aggregation. Put plainly: Inhibitory effect on monkey platelet aggregation after transdermal administration. It is filed as in vivo. The following applies: cynomolgus monkeys, transdermal daily for four weeks (70 mg/kg; comparator 60 mg/kg), inducer 1 mM arachidonic acid. Here is the method: The dose volume for a monkey was calculated based on its weight. The hair on the monkey's back was shaved, and the drug was evenly applied to the bare skin. The drug was administered continuously every day for four weeks. Blank blood was collected before administration, and blood was collected once a week after administration to detect the platelet aggregation ability (the inducer was 1 mM arachidonic acid).

For the molecule `CCN(CC)CCOC(=O)c1ccccc1OC(C)=O.Cl`, the “Highest acetylsalicylic acid concentration in plasma” value in data set [1] and in data set [3] was “BLOQ” in each case. Also, the C0 at 0 min, 1 μM/mL in data set [2] turned out to be 262 µg/mL. For the same molecule, the “concentration of the parent drug” value is 3.09 µg/mL in data set [4] (10 min) and “undetectable” in data set [4] (30 min). For the same molecule, the “inhibitory effect on platelet aggregation” value in data set [5] is on record as “cannot inhibit platelet aggregation effectively”. In data set [5], the platelet aggregation rate entry is listed as “about 50%”.
